Assay results published in ChEMBL document CHEMBL1201862, “PubChem BioAssay data set” (2004).
Active and inactive are the calls of the source.

What was measured:
[1] = Late stage results for the probe development effort to identify inhibitors of Plasmodium falciparum gametocytes: Luminescence-based cell-based high throughput dose response assay to identify inhibitors of viability of late stage Plasmodium falciparum gametocytes.; assay type: functional
[2] = OV-90 cell viability loss – plate reader, dry powder, SA8, PAX8 inhibitor project, dose response (AID 743149); assay type: functional, cell-based
[3] = intracellular Trypanosoma cruzi inhibitors in host cells – cell-based, plate reader, cherry-pick samples, set 3, dose response (AID 651818); assay type: functional;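 note: compounds incubated with infected cells for about four days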
[4] = inhibitors acting on PAX2 in cells – cell-based, plate reader, dry powder samples, selectivity assay for PAX8 inhibitor project, dose response (AID 743048); assay type: functional;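 note: HEK293 cells carrying a WT1 promoter luciferase reporter driven by expressed Pax2; potency is for inhibition of Pax2 driven reporter signal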
[5] = OVCAR4 cell viability loss – plate reader, dry powder, SA11, cytotoxicity control for PAX8 inhibitor project, dose response (AID 743150); assay type: functional, cell-based; conditions: OVCAR-4
[6] = PAX5 cellular inhibition readout – cell-based, plate reader, dry powder samples, selectivity assay for PAX8 inhibitor project, dose response (AID 743047); assay type: functional;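 note: HEK293 cells carrying a Pax5 driven CD19 promoter luciferase reporter; potency of inhibitors that lower reporter luminescence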
[7] = target: Paired box protein Pax-8 (Homo sapiens, UniProt Q06710); assay: PAX8 transcriptional activity inhibition in RMG-I – RMG-I cells, luciferase, cherry-pick, dose response (AID 687027); assay type: functional, cell-based;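 note: luciferase reporter driven by Pax8 target thyroperoxidase promoter measured by SteadyGlo luminescence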
[8] = PAX8-dependent cell viability loss – plate reader, dry powder, dose response (AID 743049); assay type: functional, cell-based
[9] = OVCAR-3 cell viability loss – plate reader, dry powder samples, PAX8 inhibitor project, dose response (AID 743044); assay type: functional, cell-based
[10] = target: Signal transducer and activator of transcription 1-alpha/beta (Homo sapiens, UniProt P42224); assay: inhibition of STAT1 reporter activity – cell-based, NIH 3T3, luciferase reporter, dose response (AID 1396); assay type: functional
[11] = target: NAD-dependent protein deacylase sirtuin-5, mitochondrial (Homo sapiens, UniProt Q9NXA8); assay: sirtuin-5 deacylation blockers, concentration series – biochemical, fluorescence imaging, cherry-pick, set 5, dose response (AID 720591);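 note: desuccinylation of succinyl peptide AMC substrate read as fluorescence after trypsin release; potency of inhibitors that lower fluorescence and may act on trypsin instead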
[12] = IC50 of Artemis nuclease activity blockers – biochemical, fluorescence intensity, dose response (AID 720701); assay type: functional;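 note: Artemis endonuclease enzyme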
[13] = target: Serine/threonine-protein phosphatase PP1-alpha catalytic subunit (Homo sapiens, UniProt P62136); assay: inhibition of protein phosphatase 1 activity – biochemical, fluorescence, dose response (AID 2403);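 note: phosphatase turnover of OMFP into fluorescent 3-O-methylfluorescein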
[14] = microbe, parasite or virus in culture; assay type: functional; conditions: Mycobacterium tuberculosis
[15] = target: Serine/threonine-protein phosphatase (Homo sapiens, UniProt Q9BPW0); assay: Counterscreen for inhibitors of PP1: fluorescence-based biochemical high throughput dose response assay to identify inhibitors of Protein Phosphatase 5 (PP5). [Related pubchem assays: 2034 (Summary (PP5 inhibitors)), 1987 (PP5 inhibitors in singlate), 2235 (PP1 inhibitors in singlate)]
[16] = target: Cytochrome P450 2C9 (Homo sapiens, UniProt P11712)
[17] = target: T1, Protein skinhead-1 (Caenorhabditis elegans, UniProt P34707); assay type: functional
T1 sequence (P34707 whole entry): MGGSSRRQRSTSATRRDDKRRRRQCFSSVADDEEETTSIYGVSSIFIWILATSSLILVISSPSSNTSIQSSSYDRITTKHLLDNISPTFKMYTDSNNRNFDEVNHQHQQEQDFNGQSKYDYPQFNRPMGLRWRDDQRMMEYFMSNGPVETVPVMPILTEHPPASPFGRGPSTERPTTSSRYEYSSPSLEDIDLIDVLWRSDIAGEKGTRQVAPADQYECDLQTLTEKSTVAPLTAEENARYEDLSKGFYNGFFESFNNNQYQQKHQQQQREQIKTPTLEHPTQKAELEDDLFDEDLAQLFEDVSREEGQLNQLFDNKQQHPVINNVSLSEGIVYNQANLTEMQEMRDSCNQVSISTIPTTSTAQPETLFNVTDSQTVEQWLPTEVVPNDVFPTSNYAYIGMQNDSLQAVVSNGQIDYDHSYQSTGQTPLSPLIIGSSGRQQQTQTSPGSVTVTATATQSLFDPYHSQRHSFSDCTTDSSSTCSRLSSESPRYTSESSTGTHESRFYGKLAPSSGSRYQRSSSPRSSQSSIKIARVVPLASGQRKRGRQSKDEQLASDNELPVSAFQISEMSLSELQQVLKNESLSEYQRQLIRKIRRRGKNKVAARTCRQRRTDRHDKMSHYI

[18] = cells
[19] = target: Oxysterols receptor LXR-beta (Homo sapiens, UniProt P55055); assay type: functional, cell-based;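 note: Cell-based luminescence dose-response assay of agonist activity at LXR, run as a confirmatory counterscreen to a daf-12 agonist screen; HEK293 cells with Gal4-LXR fusion and GAL4-driven luciferase reporter; agonist potency from rising luciferase signal of a Gal4-LXR reporter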
[20] = target: Peroxisome proliferator-activated receptor gamma/Nuclear receptor coactivator 2 (Homo sapiens, UniProt P37231); assay: (§1) TR-FRET dose response biochemical High Throughput Screening assay for agonists of the steroid receptor coactivator 2 (SRC-2) recruitment by the peroxisome proliferator-activated receptor gamma (PPAR gamma): non-selective agonists. [Related pubchem assays: 1297, 1032 ]; assay type: functional
[21] = target: Ubiquitin carboxyl-terminal hydrolase BAP1 (Homo sapiens, UniProt Q92560); assay: inhibition of BAP1 ubiquitin hydrolase activity – biochemical, dose response (AID 714); assay type: functional
[22] = target: Peroxisome proliferator-activated receptor gamma/Nuclear receptor coactivator 1 (Homo sapiens, UniProt P37231); assay: as §1, with “1 (SRC-1)” for “2 (SRC-2)”, “assays (depositor defined):AID1300, AID1808, AID504735, AID631]” for “assays: 1297, 1032 ]”; assay type: protein assay
[23] = target: Peroxisome proliferator-activated receptor gamma/Nuclear receptor coactivator 3 (Homo sapiens, UniProt P37231); assay: as §1, with “3 (SRC-3)” for “2 (SRC-2)”, “1301 (Confirmation screen.), 1048 (Primary screen.)]” for “1297, 1032 ]”; assay type: functional
[24] = alpha-synuclein stem-loop luciferase translation blockers – H4 neuroglioma cells, luminescence, confirmation (AID 1988); assay type: functional, cell-based
[25] = HIV-1 Vif–A3G interaction blockers – biochemical, TR-FRET, GST-Vif 1-94, biotin-A3G peptide, dose response retest, primary screen (AID 1117319); assay type: functional;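 note: TR-FRET signal of purified GST-Vif binding a biotinylated A3G peptide; inhibitors lower the FRET signal by blocking Vif and A3G binding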
[26] = luciferase reporter signal suppression in cells – H4 neuroglioma cells, luminescence, dose response (AID 1990); assay type: functional, cell-based
[27] = Luminescence Cell-Based Dose Response HTS to Identify Inhibitors of 5'UTR Stem-Loop Driven Prion Protein mRNA Translation in H4 Neuroglioblastoma Cells. [Related pubchem assays: 1827 (Project Summary), 1813 (Primary HTS)]; assay type: functional
[28] = cells; assay type: functional, cell-based; conditions: INS-1E
[29] = IC50 of insulin release inhibition, rat insulinoma INS-1E line, 5 mM glucose, cell-based (AID 1117331); assay type: functional

Sequence of Serine/threonine-protein phosphatase (Q9BPW0 whole entry): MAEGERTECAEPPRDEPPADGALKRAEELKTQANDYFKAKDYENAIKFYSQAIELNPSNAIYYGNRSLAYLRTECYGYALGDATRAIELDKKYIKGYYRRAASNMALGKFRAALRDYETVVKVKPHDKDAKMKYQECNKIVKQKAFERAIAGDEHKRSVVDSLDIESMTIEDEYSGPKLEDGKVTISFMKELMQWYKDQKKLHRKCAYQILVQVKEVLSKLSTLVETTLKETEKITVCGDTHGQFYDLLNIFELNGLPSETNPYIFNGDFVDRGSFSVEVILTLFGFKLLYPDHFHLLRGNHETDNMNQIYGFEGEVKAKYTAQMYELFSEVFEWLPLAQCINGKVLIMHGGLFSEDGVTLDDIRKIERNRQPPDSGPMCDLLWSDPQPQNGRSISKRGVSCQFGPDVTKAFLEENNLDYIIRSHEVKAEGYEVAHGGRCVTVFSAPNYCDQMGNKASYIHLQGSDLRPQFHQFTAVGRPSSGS
Sequence of NAD-dependent protein deacylase sirtuin-5, mitochondrial (Q9NXA8 whole entry): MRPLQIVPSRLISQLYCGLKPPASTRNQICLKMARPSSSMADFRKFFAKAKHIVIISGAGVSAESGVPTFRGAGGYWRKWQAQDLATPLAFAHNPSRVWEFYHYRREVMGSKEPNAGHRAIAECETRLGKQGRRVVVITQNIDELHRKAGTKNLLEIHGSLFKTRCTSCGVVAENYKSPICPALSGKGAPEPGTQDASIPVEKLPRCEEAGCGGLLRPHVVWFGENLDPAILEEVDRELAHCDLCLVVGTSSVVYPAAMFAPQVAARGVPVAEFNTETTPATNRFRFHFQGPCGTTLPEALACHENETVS
Sequence of Paired box protein Pax-8 (Q06710 whole entry): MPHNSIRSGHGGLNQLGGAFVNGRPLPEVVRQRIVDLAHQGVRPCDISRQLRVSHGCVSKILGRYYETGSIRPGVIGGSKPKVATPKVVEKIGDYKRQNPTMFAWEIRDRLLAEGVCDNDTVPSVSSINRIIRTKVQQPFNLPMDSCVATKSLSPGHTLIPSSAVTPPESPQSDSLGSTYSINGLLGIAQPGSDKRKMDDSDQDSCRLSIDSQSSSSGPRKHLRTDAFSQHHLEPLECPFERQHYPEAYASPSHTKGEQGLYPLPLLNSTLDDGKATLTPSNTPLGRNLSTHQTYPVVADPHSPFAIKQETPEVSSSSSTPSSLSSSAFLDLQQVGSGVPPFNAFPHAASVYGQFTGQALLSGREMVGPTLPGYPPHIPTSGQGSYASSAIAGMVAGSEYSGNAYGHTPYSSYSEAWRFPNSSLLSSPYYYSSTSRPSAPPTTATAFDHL
Sequence of Cytochrome P450 2C9 (P11712 whole entry): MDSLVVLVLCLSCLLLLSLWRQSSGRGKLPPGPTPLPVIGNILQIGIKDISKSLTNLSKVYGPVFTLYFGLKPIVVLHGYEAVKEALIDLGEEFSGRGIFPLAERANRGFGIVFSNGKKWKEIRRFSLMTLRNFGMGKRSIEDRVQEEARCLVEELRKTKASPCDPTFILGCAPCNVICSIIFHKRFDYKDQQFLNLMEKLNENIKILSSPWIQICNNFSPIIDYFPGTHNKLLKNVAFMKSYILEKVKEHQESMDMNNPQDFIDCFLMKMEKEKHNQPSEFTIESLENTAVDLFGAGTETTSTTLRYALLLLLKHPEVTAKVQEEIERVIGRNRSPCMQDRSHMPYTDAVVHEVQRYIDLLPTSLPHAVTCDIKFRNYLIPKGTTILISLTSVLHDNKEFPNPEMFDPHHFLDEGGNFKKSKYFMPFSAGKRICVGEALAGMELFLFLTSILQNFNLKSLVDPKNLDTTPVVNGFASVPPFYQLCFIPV
Sequence of Ubiquitin carboxyl-terminal hydrolase BAP1 (Q92560 whole entry): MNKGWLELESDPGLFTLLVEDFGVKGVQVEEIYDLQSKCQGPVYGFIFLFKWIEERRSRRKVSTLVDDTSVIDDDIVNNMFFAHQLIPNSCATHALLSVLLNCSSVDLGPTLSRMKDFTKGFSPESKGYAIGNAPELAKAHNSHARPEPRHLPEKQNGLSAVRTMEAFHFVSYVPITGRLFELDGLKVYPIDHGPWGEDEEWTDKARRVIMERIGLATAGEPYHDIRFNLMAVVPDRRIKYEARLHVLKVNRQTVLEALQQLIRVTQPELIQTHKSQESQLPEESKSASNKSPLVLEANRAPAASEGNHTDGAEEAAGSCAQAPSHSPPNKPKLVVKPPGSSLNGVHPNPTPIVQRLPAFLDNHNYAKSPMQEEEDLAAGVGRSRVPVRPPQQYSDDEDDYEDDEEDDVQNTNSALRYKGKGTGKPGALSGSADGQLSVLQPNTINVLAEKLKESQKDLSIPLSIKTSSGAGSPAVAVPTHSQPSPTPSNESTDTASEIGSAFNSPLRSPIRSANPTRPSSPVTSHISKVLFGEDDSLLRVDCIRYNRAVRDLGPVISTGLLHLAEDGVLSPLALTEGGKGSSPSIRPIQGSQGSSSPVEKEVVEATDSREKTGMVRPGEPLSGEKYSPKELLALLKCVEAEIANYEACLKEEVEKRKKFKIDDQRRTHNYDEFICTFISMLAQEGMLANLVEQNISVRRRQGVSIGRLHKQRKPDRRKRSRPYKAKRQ
Sequence of Oxysterols receptor LXR-beta (P55055 whole entry, the tested form may be a part): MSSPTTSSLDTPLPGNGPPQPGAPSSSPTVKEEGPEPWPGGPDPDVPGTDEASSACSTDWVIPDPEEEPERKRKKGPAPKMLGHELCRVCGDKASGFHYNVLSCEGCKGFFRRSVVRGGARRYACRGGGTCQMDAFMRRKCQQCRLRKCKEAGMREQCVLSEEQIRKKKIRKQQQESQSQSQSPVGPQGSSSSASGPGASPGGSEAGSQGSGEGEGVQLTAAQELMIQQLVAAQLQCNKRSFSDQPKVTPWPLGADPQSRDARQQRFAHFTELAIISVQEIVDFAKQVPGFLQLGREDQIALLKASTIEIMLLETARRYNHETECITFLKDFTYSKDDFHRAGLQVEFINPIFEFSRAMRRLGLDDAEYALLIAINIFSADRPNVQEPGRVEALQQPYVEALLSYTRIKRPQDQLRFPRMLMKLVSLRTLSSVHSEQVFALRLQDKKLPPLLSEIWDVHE
Sequence of Serine/threonine-protein phosphatase PP1-alpha catalytic subunit (P62136 whole entry): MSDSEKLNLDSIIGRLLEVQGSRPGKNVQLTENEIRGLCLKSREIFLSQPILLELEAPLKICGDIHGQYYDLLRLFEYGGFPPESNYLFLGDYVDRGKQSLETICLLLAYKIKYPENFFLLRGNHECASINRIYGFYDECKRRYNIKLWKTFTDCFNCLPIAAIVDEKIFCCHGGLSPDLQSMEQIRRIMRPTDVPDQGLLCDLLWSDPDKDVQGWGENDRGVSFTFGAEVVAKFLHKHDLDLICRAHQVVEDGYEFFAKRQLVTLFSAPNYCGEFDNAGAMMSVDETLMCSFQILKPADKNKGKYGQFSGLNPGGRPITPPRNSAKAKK
Sequence of Signal transducer and activator of transcription 1-alpha/beta (P42224 whole entry): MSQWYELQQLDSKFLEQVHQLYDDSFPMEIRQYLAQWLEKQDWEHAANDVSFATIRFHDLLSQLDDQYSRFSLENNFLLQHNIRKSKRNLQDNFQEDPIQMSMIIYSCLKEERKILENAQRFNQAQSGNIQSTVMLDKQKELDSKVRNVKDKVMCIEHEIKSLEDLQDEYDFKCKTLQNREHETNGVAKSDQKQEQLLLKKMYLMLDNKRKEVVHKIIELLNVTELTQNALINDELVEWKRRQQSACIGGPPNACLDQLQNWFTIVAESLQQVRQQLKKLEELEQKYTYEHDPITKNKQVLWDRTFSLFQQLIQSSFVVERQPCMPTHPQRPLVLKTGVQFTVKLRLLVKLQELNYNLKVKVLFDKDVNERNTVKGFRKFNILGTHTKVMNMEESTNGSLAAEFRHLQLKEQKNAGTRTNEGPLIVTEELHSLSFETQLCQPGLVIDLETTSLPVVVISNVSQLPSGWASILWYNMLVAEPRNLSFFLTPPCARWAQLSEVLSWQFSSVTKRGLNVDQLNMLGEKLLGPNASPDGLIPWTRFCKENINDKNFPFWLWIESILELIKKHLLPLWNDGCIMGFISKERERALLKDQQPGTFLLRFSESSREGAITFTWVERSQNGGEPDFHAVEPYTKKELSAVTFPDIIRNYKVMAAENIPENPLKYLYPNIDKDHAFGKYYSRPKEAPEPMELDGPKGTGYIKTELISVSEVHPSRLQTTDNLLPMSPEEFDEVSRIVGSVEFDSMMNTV

Question: Which IC50 [1] does the source give for `O=C(Nc1nccs1)c1cc(C2CC2)nn1-c1ccccc1` here?
Answer: Its IC50 is > 37.2 µM (inactive).

Question: Which AC50 [2] does the source give for `COc1ccc(S(=O)(=O)Nc2ccc3c(c2)CC(=O)N([C@@H](C)CO)C[C@H](C)[C@@H](CN(C)Cc2ccc(C(F)(F)F)cc2)O3)cc1` here?
Answer: The AC50 was > 70 µM (inactive).

Question: And the AC50 [3]?
Answer: Its AC50 is 3.67 µM (active).

Question: And the AC50 [4]?
Answer: The AC50 was 20 µM (active).

Question: And the AC50 [5]?
Answer: Its AC50 is 59.7 µM (active).

Question: What about the AC50 [6] of the same compound?
Answer: Its AC50 is 21.7 µM (active).

Question: What about the AC50 [7] of the same compound?
Answer: Its AC50 is 6.21 µM (active).

Question: What about the AC50 [8] of the same compound?
Answer: Its AC50 is 31.3 µM (active).

Question: What about the AC50 [9] of the same compound?
Answer: Its AC50 is 49.1 µM (active).

Question: With `CC1C(=O)NN=C1C(=O)N/N=C\C(Br)=C\c1ccccc1` (centres undefined) as the compound, how does the IC50 [10] read?
Answer: The IC50 was 10.5 µM (not active).

Question: Which AC50 [11] does the source give for `COc1ccc(CN(C(=O)c2ccco2)c2ccc(C)c(C)c2)cc1` here?
Answer: The AC50 was 24.7 µM (active).

Question: For `c1ccc(-c2nccc(-c3ccc(-n4cnc5ccccc54)cc3)n2)nc1`, which IC50 [12] is on record?
Answer: The IC50 was 4.65 µM (active).

Question: And the IC50 [13]?
Answer: Its IC50 is 4 µM (active).

Question: And the CC50 [14]?
Answer: Its CC50 is > 40 µM (active).

Question: And the IC50 [15]?
Answer: The IC50 was 57.6 µM (not active).

Question: What about the AC50 [16] of the same compound?
Answer: The AC50 was 22.4 µM (inconclusive).

Question: With `Clc1ccc(C=Cc2ccccn2)c(Cl)c1` as the compound, how does the IC50 [17] read?
Answer: The IC50 was 4.24 µM (active).

Question: And the EC50 [18]?
Answer: The EC50 was > 67.6 µM (inactive).

Question: And the EC50 [19]?
Answer: The EC50 was > 67.6 µM (inactive).

Question: For `O=C(Nc1nnc(-c2ccco2)s1)C1CCN(S(=O)(=O)c2ccc(Cl)cc2)CC1`, which EC50 [20] is on record?
Answer: Its EC50 is 31.4 µM (not active).

Question: And the IC50 [21]?
Answer: The IC50 was > 50 µM (not active).

Question: What about the EC50 [22] of the same compound?
Answer: Its EC50 is 56.6 µM (inactive).

Question: And the EC50 [23]?
Answer: The EC50 was > 79.4 µM (not active).

Question: For `Cc1ccc(NCc2nnc(SCc3ccc(C#N)cc3)n2Cc2ccco2)c(C)c1`, which EC50 [24] is on record?
Answer: Its EC50 is > 120 µM (not active).

Question: And the IC50 [25]?
Answer: Its IC50 is > 100 µM (active).

Question: And the EC50 [26]?
Answer: The EC50 was > 120 µM (not active).

Question: And the EC50 [27]?
Answer: Its EC50 is > 120 µM (not active).

Question: Which results are given for `CC1CC(=O)NN=C1c1ccc(NCC(C)(C)NCC(O)COc2cc(Cl)ccc2C#N)cc1` (centres undefined) [OBERADILOL]?
Answer: IC50 [28]: > 33.3 µM (inactive); IC50 [29]: 15.2 µM (inactive)
